Source: patent publication US20040053996A1, “Use of oxabicyclo[2.2.1]heptane derivatives as pesticidal agents” (priority 2000, published 2004)

Legend:
[1] = test system: greenhouse red spider mite (Tetranychus urticae); test: Tetranychus test (OP-resistant/dip treatment); assay type: in vivo; conditions: 1000 ppm, infested bean plants (Phaseolus vulgaris) dipped, OP-resistant mites
Protocol: Tetranychus Test (OP Resistant/Dip Treatment)
To produce a suitable preparation of active compound, 1 part by weight of active compound is mixed with the stated amount of solvent and the stated amount of emulsifier, and the concentrate is diluted with emulsifier-containing water to the desired concentration.
Bean plants (Phaseolus vulgaris) which are heavily infested by all stages of the greenhouse red spider mite (Tetranychus urticae) are dipped into a solution of the active compound at the desired concentration.
After the desired period of time, the effect in % in determined. 100% means that all spider mites have been killed; 0% means that none of the spider mites have been killed.

Myzus persicae = test: Myzus test; assay type: in vivo; conditions: 100 ppm, infested cabbage leaves (Brassica oleracea) dipped
Protocol: (§1) To produce a suitable preparation of active compound, 1 part by weight of active compound is mixed with the stated amounts of solvent and of emulsifier, and the concentrate is diluted with emulsifier—containing water to the desired concentration.
Cabbage leaves (Brassica oleracea) which are heavily infested by Myzus persicae are dipped into a preparation of active compound of the desired concentration.
After the desired period of time, the kill in % is determined. 100% means that all aphids have been killed; (0)% means that none of the aphids nave been killed.

[2] = test system: larvae of Phaedon cochleariae; test: Phaedon larvae test; assay type: in vivo; conditions: 1000 ppm, cabbage leaves (Brassica oleracea) dipped, infested with larvae
Protocol: as §1
Cabbage leaves (Brassica oleracea) are treated by being dipped into the preparation of active compound of the desired concentration and are infested with larvae of Phaedon cochleariae while the leaves are still moist.
After the desired period of time, the kill in % is determined. 100% means that all beetle larvae have been killed; 0% means that no beetle larvae have been killed.

Meloidogyne incognita = Meloidogyne incognita test; assay type: in vivo; conditions: 20 ppm; sand with egg-larvae suspension and lettuce seeds; nematocidal activity from gall formation, 100% = no galls
Protocol: To produce a suitable preparation of active compound, 1 part by weight of active compound is mixed with the stated amounts of solvent and of emulsifier, and the concentrate is diluted with water to the desired concentration.
Containers are filled with sand, preparation of active compound, a suspension of egg-larvae of Meloidogyne incognita and with lettuce seeds. The lettuce seeds germinate and the plants are allowed to grow. Galls are formed on the roots.
After the desird period of time, the nematocidal activity is determined on basis of the formation of galls and is calculated in %.
An activity of 100% means that no galls have been found, an activity of 0% means that the number of the galls at the treated plants corresponds to the number of galls in the untreated control plants.

[3] = test system: Erysiphe graminis f. sp.hordei; test: Erysiphe test (barley)/induction of resistance; assay type: in vivo; conditions: young barley plants sprayed at 750 g/ha; inoculated 4 days after treatment; evaluated 7 days after inoculation; 100% = no disease
Protocol: Erysiphe Test (Barley)/Induction of Resistance
To produce a suitable preparation of active compound, 1 part by weight of active compound is mixed with the stated amount of solvent, and the concentrate is diluted with water and the stated amount of emulsifier to the desired concentration.
To test for resistance-inducing activity, young barley plants are sprayed with the preparation of active compound at the stated rate of application. 4 days after the treatment, the plants are inoculated with an aqueous spore suspension of Erysiphe graminis f. sp.hordei. The plants are subsequently placed in a greenhouse at 70% relative atmospheric humidity and 18° C.
The test is evaluated 7 days after the inoculation. 0% means an efficacy which corresponds to that of the control while an efficacy of 100% means that no disease is observed.

[4] = test system: green rice leaf hopper (Nephotettix cincticeps); test: Nephotettix test; assay type: in vivo; conditions: 1000 ppm, rice seedlings (Oryza sativa) dipped, infested with larvae
Protocol: To produce a suitable preparation of active compound, 1 part by weight of active compound is mixed with the stated amount of solvent and the stated amount of emulsifier, and the concentrate is diluted with water to the desired concentration.
Rice seedlings (Oryza sativa) are treated by being dipped into the preparation of active compound of the desired concentration and are infested with larvae of the green rice leaf hopper (Nephotettix cincticeps) while the seedlings are still moist.
After the desired period of time, the kill in % is detemruned. 100% means that all leaf hoppers have been killed; 0% means that none of the leaf hoppers have been killed.

| Structure (SMILES) | Efficacy in % [3] | also measured |
| --- | --- | --- |
| COC(=O)C1C2C=CC(O2)C1C(=O)OC (centres unmarked) |  | kill in % after 7 days [1]: 90% |
| O=C(O)C1C2C=CC(O2)C1C(=O)O (centres unmarked) |  | Kill in % after 6 days (Myzus persicae): 80% |
| O=C(O)C1C2CCC(O2)C1C(=O)O (centres unmarked) |  | kill in % after 7 days [2]: 100% |
| CC(CNC(=O)C1C2CCC(O2)C1C(=O)O)c1ccccc1 (centres unmarked) |  | kill in % (Meloidogyne incognita): 100% |
| Cc1cc(C)c(NC(=O)C2C3CCC(C)(O3)C2C(=O)O)c(C)c1 (centres unmarked) |  | melting point: 168 °C |
| O=C(O)C1C2C=CC(O2)C1C(=O)NCCCc1ccccc1 (centres unmarked) | 70% |  |
| O=C(O)C1C2C=CC(O2)C1C(=O)Nc1cccc(Cl)c1 (centres unmarked) | 70% |  |
| O=C(O)C1C2C=CC(O2)C1C(=O)NCc1cc(Cl)nc(Cl)c1 (centres unmarked) | 70% |  |
| CC(C)(CNC(=O)C1C2C=CC(O2)C1C(=O)O)n1cncn1 (centres unmarked) | 70% |  |
| COc1ccccc1NC(=O)C1C2CCC(O2)C1C(=O)O (centres unmarked) | 70% |  |
| O=C(O)C1C2CCC(O2)C1C(=O)NCCc1ccccc1 (centres unmarked) | 90% |  |
| CC(Cc1ccccc1)NC(=O)C1C2CCC(O2)C1C(=O)O (centres unmarked) | 80% |  |
| CCOC(=O)C1C2C=CC(O2)C1C(=O)Sc1ccccc1NC(N)=O (centres unmarked) |  | Kill in % after 6 days [4]: 100% |
| O=C(O)[C@@H]1C2CCC(O2)[C@@H]1C(=O)O |  | Kill in % after 6 days [4]: 100% |
